Reference: patent US9169482B2, “Method for synthesizing cDNA” (TAKARA BIO INC., priority 2010, dated 2015)

Target: T1, DNaseI (Bos taurus, UniProt P00639)
T1 construct: purchased TAKARA BIO INC
Assay: Degradation of mouse genomic DNA with DNaseI in reaction solutions of Table 3, agarose gel electrophoresis (Example 2)
Assay type: biochemical
Conditions: 5 U DNaseI, 200 ng mouse genomic DNA
Method: In order to construct a reaction composition completely inhibiting endoDNase activity, six kinds of 20 μL-reaction solutions (Reaction Solutions 1 to 6) containing 5 U DNaseI (TAKARA BIO INC.), 200 ng mouse genomic DNA, and the components as listed in Table 3 were prepared. In addition, six kinds of 20 μL-reaction solutions having the same compositions except that DNaseI was not contained were prepared. These reaction solutions were incubated at 37° C. for 15 minutes, and thereafter incubated at 85° C. for 5 seconds. Next, each of the reaction solutions was subjected to agarose gel electrophoresis, thereby confirming degradation of mouse genomic DNA with DNaseI.
It could be confirmed from this matter that DNaseI activity was inhibited in Reaction Solutions 3 and 4. […] It is shown from this matter that adjustment of the Mg concentration can further inhibit DNaseI activity other than the addition of KCl and (NH4)2SO4 or an increase in the DTT concentration.

T1 sequence (P00639 23-282): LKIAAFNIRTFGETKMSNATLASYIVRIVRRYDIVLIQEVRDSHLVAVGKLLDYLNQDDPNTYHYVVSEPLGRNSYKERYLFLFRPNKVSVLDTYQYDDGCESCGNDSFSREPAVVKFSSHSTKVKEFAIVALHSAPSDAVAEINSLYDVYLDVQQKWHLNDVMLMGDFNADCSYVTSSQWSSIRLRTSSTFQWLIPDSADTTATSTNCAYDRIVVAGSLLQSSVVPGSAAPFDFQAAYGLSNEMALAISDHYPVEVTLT

N.N.O=S(=O)(O)O [(NH4)2SO4, ammonium sulfate]
Inhibition of DNaseI activity: inhibited DNaseI activity in a concentration-dependent manner
